From patent US20060222636A1, “Compositions, methods and kits relating to reprogramming adult differentiated cells and production of embryonic stem cell-like cells” (The Rockefeller University, priority 2003, published 2006)
Where two headings read alike, the source gives them in different places.

Assays:
[1] = test system: Lck/Ser-158; assay: Phospho-Lck/Ser-158 immunoblot; type: cell-based, human; settings: PKC inhibitor (10 μM)
Protocol: Human Schwann cells that had been cultured for 30 days with and without M. leprae were synchronized for 48 hours and then released to re-enter the cell cycle by addition of 10% serum. Cytoplasmic and nuclear extracts of these synchronized cells were prepared before and after addition of serum at different time points (9 to 18 hours after release). For Erk1/2 and PI3-k inhibition, pre-evaluated concentrations of specific MEK1/2 inhibitor UO126 (15 μM) and PD098059 (15 μM), pI3-k inhibitor LY294002 (15 μM) (Cell Signaling Technology), SOS inhibitor (10 μg) (Upstate Biotechnology, Lake Placid N.Y.) were used. […] None of the inhibitors produced any apoptosis or Schwann cell death under these conditions.
To examine if the addition of exogenous Heregulin-β1 can induce Lck/Ser-158 phosphorylation, human Schwann cells were serum-starved for 48 hours and then incubated with 10 nM […] for 30 minutes. Subsequently, total protein lysates were prepared and the phosphorylation state of Erk1/2, PKC-alpha-betaII/βII and Lck-Ser158 were examined using phospho-specific antibodies.

[2] = test system: Erk1/2 and GSK-3β phosphorylation; type: cell-based, human; settings: for M. leprae-induced Erk1/2 phosphorylation in presence of PKC inhibitor: 20 nM, serum starved 48 hours; for phosphorylation of Erk1/2 and GSK-3β in infected Schwann cells in presence of inhibitor: synchronized, continuous presence of inhibitor (15 μM)
Protocol: The cDNA produced was subsequently PCR amplified for 30 cycles using the various specific primers and fluorescent probes in a 384-well GeneAmp PCR system 9700 (Applied Biosystems, Foster City, Calif.). The level of each target gene was normalized to GAPDH gene as an endogenous reference. The data obtained were analyzed with the ABI PRISM 7900 HT Sequence detection system (Bulletin No. 2, Applied Biosystems). For control reactions the same master mixes were used but excluding the template RNA. Synchronization of Primary Schwann Cell and Kinase Inhibition Schwann cells that had been cultured for 30 days were synchronized for 48 hours by removing growth factor and serum. Schwann cells were then released to progress through the cell cycle by addition of 10% serum to the culture. Cytoplasmic and nuclear extracts obtained from these synchronized cells were prepared before (time 0) and after addition of serum at various time points (i.e., 9 to 18 hours after release). For Erk1/2 and pI3-k inhibition, pre-evaluated concentrations of specific MEK1/2 inhibitor UO126 (15 μM) and PD098059 (15 μM), pI3-k inhibitor LY294002 (15 μM) (Cell Signaling Technology) and SOS inhibitor (10 μg) (Upstate Biotechnology, Lake Placid, N.Y.) were added to the culture medium during synchronization and serum release, and cytoplasmic and nuclear extracts were prepared as described above and the proteins were immunoblotted using antibodies to phospho-Erk1/2, phospho-Akt, phosphoGSK-3β and cyclin-D1. For SOS inhibition studies, cell permeable SOS inhibitory peptide was added and the cells were treated as described above to analyze the effect of SOS inhibitor on M. leprae-induced activation of the above-referenced signaling molecules. None of the inhibitors examined produced any detectable apoptosis or non-apoptotic Schwann cell death under these conditions.
(§1) Human Schwann cells that had been cultured for 30 days with and without M. leprae were synchronized for 48 hours and then released to re-enter the cell cycle by addition of 10% serum. Cytoplasmic and nuclear extracts of these synchronized cells were prepared before and after addition of serum at different time points (9 to 18 hours after release). For Erk1/2 and PI3-k inhibition, pre-evaluated concentrations of specific MEK1/2 inhibitor UO126 (15 μM) and PD098059 (15 μM), pI3-k inhibitor LY294002 (15 μM) (Cell Signaling Technology), SOS inhibitor (10 μg) (Upstate Biotechnology, Lake Placid N.Y.) were used. For PKC and lck inhibition, pan-PKC inhibitor bisindolylmaleimide-I (20 nM) and Lck inhibitor PP2 (10 μM) (Calbiochem-Novabiochem Corporation, CA), respectively, were added to the culture medium during synchronization, and cytoplasmic and nuclear extracts were prepared as described above and were immunoblotted with antibodies to various phospho-specific signaling antibodies. None of the inhibitors produced any apoptosis or Schwann cell death under these conditions.

[3] = test system: PKCα/βII; assay: Phospho-PKC isoform immunoblot; type: cell-based, human
Protocol: as §1
Although PKC is known to play a role in oligodendrocyte proliferation and differentiation (Bhat et al., 1992, J. Neurosci. Res. 32:340-349; Stariha and Kim, 2001, Microsc. Res. Tech. 52:680-688), much less is known about its function in Schwann cells. […]

[4] = test system: human Schwann cells; assay: Apoptosis markers (TUNNEL assays, immunoblot of Caspase-3, Caspase-9, PARP); type: cell-based; settings: Camptothecin (1.5 μM)-treated Schwann cells, within 48 hours, positive control
Protocol: Total protein extracts were prepared from M. leprae infected and non-infected human Schwann cells in cell lysis and nuclear extraction buffer containing 62 mM Tris-HCl pH 6.8, 2% SDS, 10% Glycerol, 50 mM DTT and 0.2% protease inhibitors cocktail (Sigma, St. Louis, Mo.). Lysates were cleared by centrifugation and the protein content was determined according to the BCA method per manufacturer's instructions (PIERCE Chemical, Rockford Ill.). 40 μg of total cellular extracts were separated by sodium dodecyl sulfate-polyacrylamide gel electrophoresis (SDS-PAGE) and transferred to nitrocellulose membranes (Schleicher & Schuell, Keene, N.H.). Bound antibodies were detected using species-specific secondary antibodies coupled to HRP (Cell Signaling Technology, Beverly, Mass.) followed by enhanced chemiluminescence development (PIERCE Chemical, Rockford Ill.).
Total protein extracts were prepared by harvesting M. leprae infected human Schwann cells in cell lysis buffer and non-infected human Schwann cells in nuclear extracting buffer. Lysates were cleared by centrifugation and the protein content was determined according to the BCA method (PIERCE Chemical, Rockford Ill.). […] Protein expression intensity was normalized to β-actin expression and quantified with a densitometer (Alpha Innotech Corporation, San Leandro, Calif.) using the Alpha Imager 2200 v.5.5 software. […]

[5] = test system: cyclin D1; assay: Nuclear cyclin D1 immunoblot of synchronized Schwann cells; type: cell-based, human; settings: added to MEK and Pi3-kinase inhibitors
Protocol: Protein expression intensity was normalized using β-actin expression as an internal control marker and quantified with a densitometer (Alpha Innotech Corporation, San Leandro, Calif.) using the Alpha Imager 2200 v.5.5 software. For preparation of nuclear and cytoplasmic extracts, cells were incubated in a buffer containing 10 mM HEPES pH 7.5, 60 mM KCl, 1 mM EDTA, 0.1% NP-40, 1 mM DTT, 1 mM PMSF and protease inhibitors cocktail for 10 minutes on ice. Lysates were then centrifuged for 10 minutes and the supernatant, which comprised of cytoplasmic extract, was collected. The pellet was re-suspended in a buffer containing 50 mM Tris-HCl pH 7.5, 150 mM NaCl, 1% sodium lauryl sarcosine, 1% NP-40, 0.1% SDS, 1 mM EDTA and protease inhibitors cocktail. After brief sonication, the lysates were centrifuged for 10 minutes and the supernatant, consisting of nuclear extract, was collected. The protein content in both extracts was determined using the BCA method per manufacturer's instructions (Pierce Chemical, Rockford, Ill.).
The cDNA produced was subsequently PCR amplified for 30 cycles using the various specific primers and fluorescent probes in a 384-well GeneAmp PCR system 9700 (Applied Biosystems, Foster City, Calif.). […] The data obtained were analyzed with the ABI PRISM 7900 HT Sequence detection system (Bulletin No. 2, Applied Biosystems). […]

[6] = test system: human primary Schwann cells; assay: Cell cycle FACS analysis (propidium iodide); type: cell-based
Protocol: Human primary Schwann cells, that had been cultured for 15 and 30 days with and without M. leprae were trypsinized and adjusted to equal cell number. For the experiments with kinase inhibitors, synchronized infected and control cells were treated with pre-evaluated concentrations of various inhibitors as described previously elsewhere herein, and with different combinations of inhibitors before being processed for cell cycle FACS (Lemoine and Marriott, 2001, J. Biol. Chem. 276:31851-31857). To assess the effect of Lck inhibitor on heregulin-induced cell cycle progression, synchronized Schwann cells were treated with heregulin for 30 minutes in the presence and absence of Lck inhibitor. Cells were then washed with PBS, fixed with 85% ethanol overnight at […] and suspended in 1 ml PBS containing 1% FBS, RNase A (250 μg/ml; Roche Molecular Biochemicals) and 100 μg/ml Propidium Iodide (Sigma) for 30 minutes at 37° C. Stained cells were washed twice with PBS and subjected to FACS analysis on a Becton Dickinson FACScan cytometer (Ruhl et al., 1999, J. Biol. Chem. 274: 34361-34368). The cell cycle profile was analyzed with CellQuest software (Becton & Dickinson).

CN(C)CCCn1cc(C2=C(c3c[nH]c4ccccc34)C(=O)NC2=O)c2ccccc21 [bisindolylmaleimide-I]
phosphorylation at Lck/Ser-158 in presence of PKC inhibitor ([1]; listed as PKC inhibitor): completely abolished | phosphorylation at Lck/Ser-158 in presence of PKC inhibitor ([1]; listed as PKCI): abrogated | M. leprae-induced Erk1/2 phosphorylation in presence of PKC inhibitor ([2]; with MEK1/2 and Pi3K inhibitors): significantly blocked | M. leprae-induced Erk1/2 phosphorylation in presence of PKC inhibitor ([2]; with MEK1/2 and Pi3K inhibitors, listed as PKC inhibitor): dramatically down-regulated | apoptosis or cell death of treated cells ([2]; bisindolylmaleimide-I 20 nM): no apoptosis or cell death | M. leprae-induced phospho-PKCα/βII in presence of pan-PKC inhibitor [3]: markedly blocked

CC[C@@]1(O)C(=O)OCc2c1cc1n(c2=O)Cc2cc3ccccc3nc2-1 [Camptothecin]
expression of apoptosis markers caspase 3, caspase 9, PARP [4]: induced the expression of these apoptotic markers | expression of apoptosis markers caspase 3, caspase 9, PARP ([4]; listed as camptothecin): express all three apoptosis markers

CC(C)(C)n1nc(-c2ccc(Cl)cc2)c2c(N)ncnc21 [PP2]
M. leprae-induced phosphorylation of Erk1/2 in presence of Lck inhibitor ([2]; 10 μM, with MEK1/2 and Pi3K inhibitors, 48 hours): significant reduction | nuclear cyclin D1 in presence of Lck inhibitor ([5]; listed as Lck inhibitor): dramatically reduced | nuclear cyclin D1 in presence of Lck inhibitor ([5]; listed as Lck-inhibitor): significant blockade | net M. leprae-induced S-phase cell population in presence of Lck inhibitor ([6]; added to MEK and Pi3-kinase inhibitors): dramatically reduced | net S-phase population induced by exogenous heregulin-β1 in presence of Lck inhibitor ([6]; listed as Lck inhibitor): did not affect | net S-phase population induced by exogenous heregulin-β1 in presence of Lck inhibitor ([6]; listed as Lck-inhibitor): fails to respond

O=c1cc(N2CCOCC2)oc2c(-c3ccccc3)cccc12 [LY294002]
phosphorylation of Erk1/2 and GSK-3β in infected Schwann cells in presence of inhibitor [2]: not inhibited

N#CC(=C(/N)Sc1ccccc1N)/C(C#N)=C(\N)Sc1ccccc1N [U0126]
phosphorylation of Erk1/2 and GSK-3β in infected Schwann cells in presence of inhibitor [2]: not inhibited
